Measured values as given in US7423015B1, “Antihelminthic drugs as a treatment for hyperproliferative diseases” (Board of Regents, The University of Texas System, priority 2001, dated 2008).
Where two headings read alike, the source gives them in different places.

What was measured:
[1] = system: H1299; assay: Cell viability, trypan blue cell count assay; type: cell-based; settings: Homo sapiens, NCI-H1299, H1299 (lung, p53 deleted), 100% = untreated cells
Method: (§1) All cell lines were grown in RPMI 1640 medium supplemented with 5% fetal bovine serum and 5% CO2. All experiments were done when the cells were 70% confluent. For cell growth measurements, 5×10^4 cells were plated in each well of six-well plates. Control and BZ-treated (0.05 μg/ml) cells were trypsinized and counted using a hemocytometer. Experiments were done in triplicate and the mean and standard deviation were determined by standard methods.
(§2) To further investigate the relationship between the induction of functional p53 and the subsequent apoptosis mediated by these drugs, the inventors posited that if BZs require wild-type p53 in order to exert their effect, then fenbendazole and mebendazole would not be cytotoxic to the many tumor lines producing a mutated p53 protein. To investigate this possibility, human cell lines derived from NSCLC origins of differing p53 status were further analyzed by a 5-day cell growth assay. The cells were plated onto a six-well plate, and the viability of the cells was determined by trypan blue exclusion. Cells were counted on a hemocytometer. The values shown are the means ±standard deviation of triplicate samples. Duplicate experiments gave similar results. H322 is a human lung adenocarcinoma line that produces a mutant p53 protein. […] However, fenbendazole and mebendazole induced nuclear accumulation of p53 only in the H460 cell line, which carries wild-type p53 genes. […] Cells were exposed to FZ (filled bar) or MZ (hatched bar) for 24 hr. A concentration of 0.05 μg/ml FZ and MZ was used. An immunoblot analysis of nuclear p53 was also performed to determine whether these drugs induced the production of p53. Equal amounts of protein extracts from each cell line before and after treatment were used for this analysis.

[2] = system: H226Br; assay: Cell viability, trypan blue cell count assay; type: cell-based; settings: Homo sapiens, H226Br (lung, R254), 100% = untreated cells
Method: as §1, §2

[3] = system: H358; assay: Cell viability, trypan blue cell count assay; type: cell-based; settings: Homo sapiens, NCI-H358, H358 (lung, p53 deleted), 100% = untreated cells
Method: as §1, §2

[4] = system: H460; assay: Cell viability, trypan blue cell count assay; type: cell-based; settings: Homo sapiens, NCI-H460, H460 (lung, wild-type p53), 100% = untreated cells
Method: as §1, §2

[5] = system: H549; assay: Cell viability, trypan blue cell count assay; type: cell-based; settings: Homo sapiens, H549 (lung, wild-type p53), 100% = untreated cells
Method: as §1, §2

[6] = system: H596; assay: Cell viability, trypan blue cell count assay; type: cell-based; settings: Homo sapiens
Method: as §1, §2

[7] = system: HT1080; assay: Cell viability, trypan blue cell count assay; type: cell-based; settings: Homo sapiens, HT-1080, HT1080 (fibrosarcoma, wild-type p53), 100% = untreated cells
Method: as §1, §2

[8] = system: HeLa; assay: Cell viability, trypan blue cell count assay; type: cell-based; settings: Homo sapiens, HeLa (cervical, wild-type p53 inactivated by E6), 100% = untreated cells
Method: as §1, §2

[9] = system: Hep 3B; assay: Cell viability, trypan blue cell count assay; type: cell-based; settings: Homo sapiens, Hep3B, Hep 3B (liver, p53 deleted), 100% = untreated cells
Method: as §1, §2

[10] = system: MCF-7; assay: Cell viability, trypan blue cell count assay; type: cell-based; settings: Homo sapiens, MCF7, MCF-7 (breast, wild-type p53), 100% = untreated cells
Method: as §1, §2

[11] = system: SK-OV-433; assay: Cell viability, trypan blue cell count assay; type: cell-based; settings: Homo sapiens, SK-OV-433 (ovarian, wild-type p53), 100% = untreated cells
Method: as §1, §2

[12] = system: SiHa; assay: Cell viability, trypan blue cell count assay; type: cell-based; settings: Homo sapiens, SiHa (cervical, wild-type p53 inactivated by E6), 100% = untreated cells
[13] = system: H460 cells; assay: Induction of apoptosis in H460 (Hoechst 33342, TUNEL, TdT FACS); type: cell-based, human
Method: Cells were seeded onto chamber slides and treated with various reagents, after which cell monolayers were washed twice with ice-cold PBS (pH 7.4). Thereafter, cells were fixed for 5 min at 20° C. in 10% formalin. The washing step with PBS was then repeated once. To stain the nuclei, the cells were incubated for 10 min with 10 μg/ml of Hoechst 33342 and then washed with PBS. The coverslips with the stained cells were mounted in 80% glycerol in PBS containing 1 mg/ml P-phenylenediamine and examined with a Nikon epifluorescence microscope.
Apoptotic assay was done using M30 CytoDEATH apoptotic cell death assay kit (Boehringer Mannnheim). Cells were grown on chamber slides, control and benzimidazole treated cells were stained with Mouse monoclonal antibody (clone M30) as per manufacturer's instructions. […] Flow cytometry was carried out in a fluorescence-activated cell sorter (Epics Elite; Coulter, Inc., Hialeah, Fla.).
The inventors tested the effect of BZ treatment on the human NSCLC cell line H460. […] Chromatin condensation was noted under a fluorescence microscope at 24 h after treatment, by staining the nuclei with Hoechst 33342 fluorescent dye. […] Gross morphological changes associated with a loss of viability were observed by 24 hr post-treatment, whereas signs of apoptosis, detected by DNA staining and TUNEL assays, became apparent by 24 hr after drug treatment.

Row | SMILES | viability at 0.05 µg/mL [1] [%] | viability at 0.05 µg/mL [2] [%] | viability at 0.05 µg/mL [3] [%] | viability at 0.05 µg/mL [4] [%] | viability at 0.05 µg/mL [5] [%] | viability ([6]; NCI-H596, read-out: % Cell Viability) [%] | viability at 0.05 µg/mL [7] [%] | viability at 0.05 µg/mL [8] [%] | viability at 0.05 µg/mL [9] [%] | viability at 0.05 µg/mL [10] [%] | viability at 0.05 µg/mL [11] [%] | viability at 0.05 µg/mL [12] [%] | apoptotic effect on H460 cells [13] | viability ([6]; NCI-H596, H596 (lung, R245C), 100% = untreated cells, read-out: % Cell Viability) [%]
1 | COC(=O)Nc1nc2ccc(Sc3ccccc3)cc2[nH]1 [Fenbendazole, methy 5-(phenylthio)-2-benzimidazole-2-carbamate] | 89.2 ± 1.1 | 80.1 ± 11.1 | 88.3 ± 17.8 | 39.2 ± 6.4 | 46.4 ± 13.3 | 86.7 ± 11.5 | 54.5 ± 12 | 93.6 ± 7.4 | 79.5 ± 12.5 | 43.9 ± 7.3 | 52.5 ± 13.2 | 94.5 ± 7.4 | apoptotic effect | 
2 | COC(=O)Nc1nc2ccc(C(=O)c3ccccc3)cc2[nH]1 [Mebendazole, Methyl 5-benzoylbenzimidazole-2-carbamate] | 89.2 ± 4.3 | 64.24 ± 0.2 | 73.5 ± 1.8 | 25.2 ± 7.6 | 39.2 ± 10.7 |  | 44.5 ± 7.7 | 92.4 ± 6.27 | 83.2 ± 1.5 | 24.3 ± 8.4 | 28.1 ± 6.1 | 91.3 ± 8.6 | apoptotic effect | 86.2 ± 8
